Measurements as given in patent US20020035061A1, “COMPOSITIONS AND METHODS FOR TREATING INFECTIONS USING CATIONIC PEPTIDES ALONE OR IN COMBINATION WITH ANTIBIOTICS” (priority 1996, published 2002).
≈ marks a conversion by molar mass, not a printed value. Where “and” joins values, the source holds several entries; their conditions need not be identical. Equal values may be shown once. Read-outs that look alike come from different tables or passages of the source.

What was measured:
Assay in all cases: microbe, parasite or virus in culture
Assay type in all cases: cell-based
[1] = system: bacterial isolates; conditions: for FIC: peptide + Tobramycin
[2] = system: inherently resistant microorganisms
[3] = system: microorganisms with acquired resistance; conditions: for Peptide MIC Alone: Tobramycin section; for FIC: peptide + Tobramycin; for MIC comb. (antibiotic agent): with MBI 29
[4] = S. maltophilia (strain code stands in r800, not shown)
[5] = Acinetobacter baumannii, read-out: Tobramycin MIC Alone, A. baumannii ABI001
[6] = Acinetobacter baumannii, read-out: Tobramycin MIC Alone, A. baumannii ABI002
[7] = Pseudomonas aeruginosa, read-out: Tobramycin MIC Alone, P. aeruginosa PA008
[8] = Pseudomonas aeruginosa, read-out: Tobramycin MIC Alone, P. aeruginosa PA022
[9] = Pseudomonas aeruginosa, read-out: Tobramycin MIC Alone, P. aeruginosa PA025
[10] = Pseudomonas aeruginosa, read-out: Tobramycin MIC Alone, P. aeruginosa PA026
[11] = Pseudomonas aeruginosa, read-out: Tobramycin MIC Alone, P. aeruginosa PA030
[12] = Pseudomonas aeruginosa, read-out: Tobramycin MIC Alone, P. aeruginosa PA032
[13] = Staphylococcus epidermidis, read-out: Tobramycin MIC Alone, S. epidermidis SE068
[14] = Staphylococcus epidermidis, read-out: Tobramycin MIC Alone, S. epidermidis SE072
[15] = Staphylococcus epidermidis, read-out: Tobramycin MIC Alone, S. epidermidis SE073
[16] = Staphylococcus epidermidis, read-out: Tobramycin MIC Alone, S. epidermidis SE080
[17] = Stenotrophomonas maltophilia, read-out: Tobramycin MIC Alone, S. maltophilia SMA029
[18] = Stenotrophomonas maltophilia, read-out: Tobramycin MIC Alone, S. maltophilia SMA030
[19] = Stenotrophomonas maltophilia, read-out: Tobramycin MIC Alone, S. maltophilia SMA031
[20] = Stenotrophomonas maltophilia, read-out: Tobramycin MIC Alone, S. maltophilia SMA032

KKWWRRALQALKNGLPALIS [MBI 22A1]
Peptide MIC + Tobramycin ([1]; S. aureus SA014 MRSA): 2 µg/mL | Peptide MIC Alone ([1]; S. aureus SA014 MRSA): 8 µg/mL | Tobramycin MIC + Peptide ([1]; S. aureus SA014 MRSA): 4 µg/mL | Peptide MIC + Tobramycin ([1]; S. epidermidis SE072): 8 µg/mL | Peptide MIC Alone ([1]; S. epidermidis SE072): 16 µg/mL | Tobramycin MIC + Peptide ([1]; S. epidermidis SE072): 0.125 µg/mL | Peptide MIC + Tobramycin ([1]; S. epidermidis SE073): 8 µg/mL | Peptide MIC Alone ([1]; S. epidermidis SE073): 16 µg/mL | Tobramycin MIC + Peptide ([1]; S. epidermidis SE073): 0.125 µg/mL | Peptide MIC + Tobramycin ([1]; S. epidermidis SE080): 0.125 µg/mL | Peptide MIC Alone ([1]; S. epidermidis SE080): 2 µg/mL | Tobramycin MIC + Peptide ([1]; S. epidermidis SE080): 16 µg/mL | Peptide MIC + Tobramycin [1, 4]: 8 µg/mL | Tobramycin MIC + Peptide [1, 4]: 0.5 µg/mL | Peptide MIC Alone ([1]; S. maltophilia (strain code stands in r800, not shown), Tobramycin section): 32 µg/mL | Peptide MIC + Tobramycin ([1]; S. maltophilia SMA030): 8 µg/mL | Tobramycin MIC + Peptide ([1]; S. maltophilia SMA030): 1 µg/mL | Peptide MIC Alone ([1]; S. maltophilia SMA030, Tobramycin section): 32 µg/mL | FIC ([1]; S. aureus SA014 MRSA): 0.27 | FIC ([1]; S. epidermidis SE072): 0.50 | FIC ([1]; S. epidermidis SE073): 0.50 | FIC ([1]; S. epidermidis SE080): 0.56 | FIC [1, 4]: 0.25 | FIC ([1]; S. maltophilia SMA030): 0.26 | Peptide MIC + Tobramycin ([2]; S. aureus): 2 µg/mL | Peptide MIC Alone ([2]; S. aureus, Tobramycin section): 8 µg/mL | FIC ([2]; peptide + Tobramycin, S. aureus): 0.27 | Peptide MIC + Tobramycin ([3]; A. baumannii ABI001): 2 µg/mL | Tobramycin MIC + Peptide ([3]; A. baumannii ABI001): 4 µg/mL | Peptide MIC Alone ([3]; A. baumannii ABI001): 4 µg/mL | Peptide MIC + Tobramycin ([3]; S. epidermidis SE072): 8 µg/mL | Tobramycin MIC + Peptide ([3]; S. epidermidis SE072): 0.125 µg/mL | Peptide MIC Alone ([3]; S. epidermidis SE072): 16 µg/mL | Peptide MIC + Tobramycin ([3]; S. epidermidis SE073): 8 µg/mL | Tobramycin MIC + Peptide ([3]; S. epidermidis SE073): 0.125 µg/mL | Peptide MIC Alone ([3]; S. epidermidis SE073): 16 µg/mL | Peptide MIC + Tobramycin ([3]; S. maltophilia SMA029): 8 µg/mL and 16 µg/mL | Peptide MIC Alone ([3]; S. maltophilia SMA029): 16 µg/mL and 32 µg/mL | FIC ([3]; A. baumannii ABI001): 0.75 | FIC ([3]; S. epidermidis SE072): 0.50 | FIC ([3]; S. epidermidis SE073): 0.50 | FIC ([3]; S. maltophilia SMA029): 0.51 and 0.50

NC[C@H]1O[C@H](O[C@H]2[C@H](O)[C@@H](O[C@H]3O[C@H](CO)[C@@H](O)[C@H](N)[C@H]3O)[C@H](N)C[C@@H]2N)[C@H](N)C[C@@H]1O [Tobramycin]
Tobramycin MIC Alone ([1]; A. baumannii ABI002): 4 µg/mL | MIC [1, 5]: 16 µg/mL (≈ 34.2 µM) | MIC [1, 6]: 8 µg/mL (≈ 17.1 µM) | MIC ([1]; Burkholderia cepacia, read-out: Tobramycin MIC Alone, B. cepacia BC001): 128 µg/mL (≈ 274 µM) | MIC ([1]; Burkholderia cepacia, read-out: Tobramycin MIC Alone, B. cepacia BC002): > 128 µg/mL | MIC ([1]; Escherichia coli, read-out: Tobramycin MIC Alone, E. coli ECO004): 2 µg/mL (≈ 4.28 µM) | MIC ([1]; Escherichia coli, read-out: Tobramycin MIC Alone, E. coli ECO006): 8 µg/mL (≈ 17.1 µM) | MIC ([1]; Klebsiella pneumoniae, read-out: Tobramycin MIC Alone, K. pneumoniae KP008): 0.5 µg/mL (≈ 1.07 µM) | MIC [1, 7]: 32 µg/mL (≈ 68.4 µM) | MIC [1, 8]: 8 µg/mL (≈ 17.1 µM) | MIC [1, 9]: 32 µg/mL (≈ 68.4 µM) | MIC [1, 10]: 8 µg/mL (≈ 17.1 µM) | MIC ([1]; Pseudomonas aeruginosa, read-out: Tobramycin MIC Alone, P. aeruginosa PA028): 32 µg/mL (≈ 68.4 µM) | MIC ([1]; Pseudomonas aeruginosa, read-out: Tobramycin MIC Alone, P. aeruginosa PA029): 32 µg/mL (≈ 68.4 µM) | MIC [1, 11]: 16 µg/mL (≈ 34.2 µM) | MIC [1, 12]: 16 µg/mL (≈ 34.2 µM) | Tobramycin MIC Alone ([1]; S. haemolyticus SHA005): 4 µg/mL | Tobramycin MIC Alone ([1]; S. maltophilia SMA031): >128 µg/mL | MIC ([1]; Staphylococcus aureus, MRSA, read-out: Tobramycin MIC Alone, S. aureus SA014 (also SA014 MRSA)): > 128 µg/mL | MIC ([1]; Staphylococcus aureus, MRSA, read-out: Tobramycin MIC Alone, S. aureus SA014 MRSA): > 128 µg/mL | MIC ([1]; Staphylococcus aureus, MRSA, read-out: Tobramycin MIC Alone, S. aureus SA018 MRSA): 64 µg/mL (≈ 137 µM) | MIC ([1]; Staphylococcus aureus, MRSA, read-out: Tobramycin MIC Alone, S. aureus SA025 (also SA025 MRSA)): > 128 µg/mL | MIC ([1]; Staphylococcus epidermidis, read-out: Tobramycin MIC Alone, S. epidermidis SE067): > 128 µg/mL | MIC [1, 13]: > 128 µg/mL | MIC [1, 14]: > 128 µg/mL | MIC [1, 15]: > 128 µg/mL | MIC [1, 16]: 32 µg/mL (≈ 68.4 µM) | MIC ([1]; Staphylococcus haemolyticus, read-out: Tobramycin MIC Alone, S. haemolyticus SHA001): 4 µg/mL (≈ 8.56 µM) | MIC ([1]; Staphylococcus haemolyticus, read-out: Tobramycin MIC Alone, S. haemolyticus SHA005): 8 µg/mL (≈ 17.1 µM) | MIC ([1]; Stenotrophomonas maltophilia, read-out: Tobramycin MIC Alone, S. maltophilia (strain code stands in r800, not shown)): 128 µg/mL (≈ 274 µM) | MIC ([1]; Stenotrophomonas maltophilia, read-out: Tobramycin MIC Alone, S. maltophilia SMA027): 32 µg/mL (≈ 68.4 µM) | MIC [1, 17]: 128 µg/mL (≈ 274 µM) | MIC [1, 18]: 128 µg/mL (≈ 274 µM) | MIC [1, 19]: 128 µg/mL (≈ 274 µM) | MIC [1, 20]: 128 µg/mL (≈ 274 µM) | MIC ([1]; Stenotrophomonas maltophilia, read-out: Tobramycin MIC Alone, S. maltophilia SMA035): 32 µg/mL (≈ 68.4 µM) | MIC ([2]; Staphylococcus aureus, read-out: Tobramycin MIC + Peptide, S. aureus, peptide MBI 11A1CN): 0.125 µg/mL | MIC ([2]; Staphylococcus aureus, read-out: Tobramycin MIC + Peptide, S. aureus, peptide MBI 11D18CN): 4 µg/mL | MIC ([2]; Staphylococcus aureus, read-out: Tobramycin MIC + Peptide, S. aureus, peptide MBI 11F3CN): 2 µg/mL | MIC ([2]; Staphylococcus aureus, read-out: Tobramycin MIC + Peptide, S. aureus, peptide MBI 11G13CN): 0.125 µg/mL | MIC ([2]; Staphylococcus aureus, read-out: Tobramycin MIC + Peptide, S. aureus, peptide MBI 21A1): 0.125 µg/mL | MIC ([2]; Staphylococcus aureus, read-out: Tobramycin MIC + Peptide, S. aureus, peptide MBI 22A1): 4 µg/mL | MIC ([2]; Staphylococcus aureus, read-out: Tobramycin MIC Alone, S. aureus): > 128 µg/mL | MIC ([2]; Staphylococcus haemolyticus, read-out: Tobramycin MIC + Peptide, S. haemolyticus, peptide MBI 11A1CN): 4 µg/mL | MIC ([2]; Staphylococcus haemolyticus, read-out: Tobramycin MIC Alone, S. haemolyticus): 8 µg/mL (≈ 17.1 µM) | MIC comb. (antibiotic agent) ([3]; A. calcoaceticus): 1 µg/mL (≈ 2.14 µM) | MIC [3, 5]: 16 µg/mL (≈ 34.2 µM) | MIC [3, 6]: 8 µg/mL (≈ 17.1 µM) | MIC ([3]; Acinetobacter calcoaceticus, read-out: MIC alone (antibiotic agent), A. calcoaceticus): 8 µg/mL (≈ 17.1 µM) | MIC ([3]; Escherichia coli, read-out: Tobramycin MIC Alone, E. coli EC0006): 8 µg/mL (≈ 17.1 µM) | Tobramycin MIC Alone ([3]; P. aeruginosa PA032): 8 µg/mL | MIC comb. (antibiotic agent) ([3]; P. aeruginosa): 1 µg/mL (≈ 2.14 µM) | MIC ([3]; Pseudomonas aeruginosa, read-out: MIC alone (antibiotic agent), P. aeruginosa): 64 µg/mL (≈ 137 µM) | MIC [3, 7]: 32 µg/mL (≈ 68.4 µM) | MIC [3, 8]: 8 µg/mL (≈ 17.1 µM) | MIC [3, 9]: 32 µg/mL (≈ 68.4 µM) | MIC [3, 10]: 8 µg/mL (≈ 17.1 µM) | MIC [3, 11]: 16 µg/mL (≈ 34.2 µM) | MIC ([3]; Pseudomonas aeruginosa, read-out: Tobramycin MIC Alone, P. aeruginosa PA031): 16 µg/mL (≈ 34.2 µM) | MIC [3, 12]: 16 µg/mL (≈ 34.2 µM) | Tobramycin MIC Alone ([3]; S. maltophilia SMA031): 128 µg/mL and >128 µg/mL | MIC [3, 13]: > 128 µg/mL | MIC ([3]; Staphylococcus epidermidis, read-out: Tobramycin MIC Alone, S. epidermidis SE071): > 128 µg/mL | MIC [3, 14]: > 128 µg/mL | MIC [3, 15]: > 128 µg/mL | MIC [3, 16]: 16 µg/mL (≈ 34.2 µM) | MIC [3, 17]: 128 µg/mL (≈ 274 µM) | MIC [3, 18]: 128 µg/mL (≈ 274 µM) | MIC [3, 19]: 64 µg/mL (≈ 137 µM) | MIC [3, 20]: 128 µg/mL (≈ 274 µM)
